Reference: ChEMBL document CHEMBL6087412, “Discovery of cloxiquine derivatives as potent HDAC inhibitors for the treatment of melanoma via activating PPARγ” (Eur J Med Chem, 2025)
Calls of active or inactive are those of the source. The calls are words filed in the database; no cut-off is given here.

Experiments:
[1] = system: SK-MEL-5; assay: cells; details: Homo sapiens, SK-MEL-5, 72 h
Description: Antiproliferative activity against human SK-MEL-5 cells assessed as inhibition of cell growth incubated for 72 hrs by MTT assay

[2] = in vitro; details: human, MRC5 cells
Description: Antiproliferative activity against human MRC5 cells assessed as inhibition of cell growth incubated for 72 hrs by MTT assay

[3] = system: A-375; assay: cells; details: Homo sapiens, A-375, 72 h
Description: Antiproliferative activity against human A-375 cells assessed as inhibition of cell growth incubated for 72 hrs by MTT assay

[4] = Toxicity in BALB/c mouse xenografted with human SK-MEL-5 cells assessed as body weight loss at 30 mg/kg,ip administrated for 21 consecutive days; format: organism-based; details: in vivo
[5] = system: SK-MEL-5; assay: Induction of apoptosis in human SK-MEL-5 cells assessed as viable cells at 1 uM incubated for 48 hrs by Annexin V-APC/7-AAD staining based flow cytometric analysis (reference value: 95.77 %); format: functional; details: read-out: Activity
[6] = system: SK-MEL-5; assay: Induction of apoptosis in human SK-MEL-5 cells assessed as necrotic cells at 5 uM incubated for 48 hrs by Annexin V-APC/7-AAD staining based flow cytometric analysis (reference value: 1.05 %); format: functional
[7] = system: SK-MEL-5; assay: Induction of cell cycle arrest in human SK-MEL-5 cells assessed as accumulation of cells at S phase at 5 uM incubated for 48 hrs by propidium iodide staining based flow cytometry (reference value: 25.36 %); format: functional
[8] = system: SK-MEL-5; assay: Induction of cell cycle arrest in human SK-MEL-5 cells assessed as accumulation of cells at G0/G1 phase at 5 uM incubated for 48 hrs by propidium iodide staining based flow cytometry (reference value: 66.27 %); format: functional
[9] = system: SK-MEL-5; assay: Antitumor activity against human SK-MEL-5 cells xenografted with BALB/c mouse assessed as tumor growth inhibition at 30 mg/kg,ip administrated for 21 consecutive days; format: functional; details: read-out: TGI
[10] = system: SK-MEL-5; assay: Induction of apoptosis in human SK-MEL-5 cells assessed as viable cells at 5 uM incubated for 48 hrs by Annexin V-APC/7-AAD staining based flow cytometric analysis (reference value: 95.77 %); format: functional; details: for viability at 5 µM: Homo sapiens, SK-MEL-5, read-out: Activity
[11] = system: SK-MEL-5; assay: Inhibition of cell invasion in human SK-MEL-5 cells at 0.2 to 5 uM incubated for 48 hrs by transwell assay; format: functional, cell-based; details: dose 0.2-5 µM
[12] = system: SK-MEL-5; assay: Induction of apoptosis in human SK-MEL-5 cells assessed as early apoptotic cells at 0.2 uM incubated for 48 hrs by Annexin V-APC/7-AAD staining based flow cytometric analysis (reference value: 2.29 %); format: functional
[13] = system: SK-MEL-5; assay: Induction of cell cycle arrest in human SK-MEL-5 cells assessed as accumulation of cells at S phase at 0.2 uM incubated for 48 hrs by propidium iodide staining based flow cytometry (reference value: 25.36 %); format: functional
[14] = system: SK-MEL-5; assay: Induction of apoptosis in human SK-MEL-5 cells assessed as early apoptotic cells at 5 uM incubated for 48 hrs by Annexin V-APC/7-AAD staining based flow cytometric analysis (reference value: 2.29 %); format: functional
[15] = system: SK-MEL-5; assay: Antiproliferative activity against human SK-MEL-5 cells assessed as upregulation of PPARgamma expression incubated for 48 hrs by Western blotting analysis; format: functional, cell-based
[16] = system: SK-MEL-5; assay: Induction of apoptosis in human SK-MEL-5 cells assessed as late apoptotic cells at 1 uM incubated for 48 hrs by Annexin V-APC/7-AAD staining based flow cytometric analysis (reference value: 0.9 %); format: functional
[17] = system: SK-MEL-5; assay: Induction of cell cycle arrest in human SK-MEL-5 cells assessed as accumulation of cells at S phase at 1 uM incubated for 48 hrs by propidium iodide staining based flow cytometry (reference value: 25.36 %); format: functional
[18] = system: SK-MEL-5; assay: Induction of apoptosis in human SK-MEL-5 cells assessed as necrotic cells at 0.2 uM incubated for 48 hrs by Annexin V-APC/7-AAD staining based flow cytometric analysis (reference value: 1.05 %); format: functional
[19] = system: SK-MEL-5; assay: Induction of apoptosis in human SK-MEL-5 cells assessed as viable cells at 0.2 uM incubated for 48 hrs by Annexin V-APC/7-AAD staining based flow cytometric analysis (reference value: 95.77 %); format: functional; details: read-out: Activity
[20] = system: SK-MEL-5; assay: Inhibition of cell migration in human SK-MEL-5 cells incubated for 24 hrs by scratch assay; format: functional, cell-based
[21] = system: SK-MEL-5; assay: Induction of apoptosis in human SK-MEL-5 cells assessed as necrotic cells at 1 uM incubated for 48 hrs by Annexin V-APC/7-AAD staining based flow cytometric analysis (reference value: 1.05 %); format: functional
[22] = system: SK-MEL-5; assay: Induction of apoptosis in human SK-MEL-5 cells assessed as late apoptotic cells at 5 uM incubated for 48 hrs by Annexin V-APC/7-AAD staining based flow cytometric analysis (reference value: 0.9 %); format: functional
[23] = target: Histone deacetylase 4 (Homo sapiens, UniProt P56524); assay: Inhibition of HDAC4 (unknown origin) using Ac-Leu-Gly-Lys(Tfa)-AMC as substrate by spectramax microplate reader analysis
Histone deacetylase 4, sequence (P56524 whole entry): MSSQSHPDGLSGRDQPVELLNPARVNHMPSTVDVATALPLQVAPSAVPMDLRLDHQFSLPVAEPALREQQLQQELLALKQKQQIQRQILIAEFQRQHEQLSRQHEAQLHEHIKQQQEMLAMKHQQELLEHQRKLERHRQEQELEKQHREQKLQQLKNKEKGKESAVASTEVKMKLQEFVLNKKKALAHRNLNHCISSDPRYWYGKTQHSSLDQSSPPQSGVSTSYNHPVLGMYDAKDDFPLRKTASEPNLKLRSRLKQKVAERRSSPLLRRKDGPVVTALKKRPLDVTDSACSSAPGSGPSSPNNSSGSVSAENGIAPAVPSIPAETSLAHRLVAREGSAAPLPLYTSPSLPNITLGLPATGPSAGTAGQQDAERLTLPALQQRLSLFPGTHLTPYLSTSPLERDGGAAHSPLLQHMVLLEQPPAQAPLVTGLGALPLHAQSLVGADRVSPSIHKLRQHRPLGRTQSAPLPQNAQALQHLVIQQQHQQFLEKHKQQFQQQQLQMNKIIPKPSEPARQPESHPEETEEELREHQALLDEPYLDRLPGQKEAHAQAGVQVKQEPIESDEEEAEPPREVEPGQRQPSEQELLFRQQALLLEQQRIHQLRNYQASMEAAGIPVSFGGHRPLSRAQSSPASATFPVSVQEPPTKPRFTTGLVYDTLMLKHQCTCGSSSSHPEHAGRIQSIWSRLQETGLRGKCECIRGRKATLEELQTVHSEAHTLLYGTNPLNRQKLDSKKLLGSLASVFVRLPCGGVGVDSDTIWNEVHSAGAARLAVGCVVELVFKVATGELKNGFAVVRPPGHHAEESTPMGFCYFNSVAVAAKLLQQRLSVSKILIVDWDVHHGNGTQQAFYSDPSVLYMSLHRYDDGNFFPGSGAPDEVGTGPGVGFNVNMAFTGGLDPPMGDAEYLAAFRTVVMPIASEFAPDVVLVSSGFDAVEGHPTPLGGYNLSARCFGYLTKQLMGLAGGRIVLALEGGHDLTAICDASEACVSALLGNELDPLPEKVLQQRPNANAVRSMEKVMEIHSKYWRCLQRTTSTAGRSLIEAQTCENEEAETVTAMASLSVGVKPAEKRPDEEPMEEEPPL

[24] = system: SK-MEL-5; assay: Induction of cell cycle arrest in human SK-MEL-5 cells assessed as accumulation of cells at G2/M phase at 0.2 uM incubated for 48 hrs by propidium iodide staining based flow cytometry (reference value: 8.36 %); format: functional
[25] = system: SK-MEL-5; assay: Induction of cell cycle arrest in human SK-MEL-5 cells assessed as accumulation of cells at G2/M phase at 1 uM incubated for 48 hrs by propidium iodide staining based flow cytometry (reference value: 8.36 %); format: functional
[26] = system: SK-MEL-5; assay: Induction of apoptosis in human SK-MEL-5 cells assessed as early apoptotic cells at 1 uM incubated for 48 hrs by Annexin V-APC/7-AAD staining based flow cytometric analysis (reference value: 2.29 %); format: functional
[27] = system: SK-MEL-5; assay: Antiproliferative activity against human SK-MEL-5 cells assessed as inhibition of cell growth incubated for 72 hrs in presence of GW9662 by MTT assay; format: functional, cell-based
[28] = system: SK-MEL-5; assay: Induction of cell cycle arrest in human SK-MEL-5 cells assessed as accumulation of cells at G0/G1 phase at 1 uM incubated for 48 hrs by propidium iodide staining based flow cytometry (reference value: 66.27 %); format: functional
[29] = system: SK-MEL-5; assay: Inhibition of glycolysis in human SK-MEL-5 cells assessed as reduction in lactate production at 2 uM incubated for 48 hrs in presence of GW9662 by chekineTM micro lactate Assay; format: functional, cell-based
[30] = system: SK-MEL-5; assay: Induction of cell cycle arrest in human SK-MEL-5 cells assessed as accumulation of cells at G2/M phase at 5 uM incubated for 48 hrs by propidium iodide staining based flow cytometry (reference value: 8.36 %); format: functional
[31] = system: SK-MEL-5; assay: Induction of cell cycle arrest in human SK-MEL-5 cells assessed as accumulation of cells at G0/G1 phase at 0.2 uM incubated for 48 hrs by propidium iodide staining based flow cytometry (reference value: 66.27 %); format: functional
[32] = system: SK-MEL-5; assay: Induction of apoptosis in human SK-MEL-5 cells assessed as late apoptotic cells at 0.2 uM incubated for 48 hrs by Annexin V-APC/7-AAD staining based flow cytometric analysis (reference value: 0.9 %); format: functional

Compound `O=C(CCCCCOc1cccc2cccnc12)NO` has an IC50 [1] of 12.7 µM, an IC50 at 72 h [2] of 28.1 µM and an IC50 [3] of 13.8 µM.

`O=C(NO)c1ccc(COc2cccc3cccnc23)cc1` showed an IC50 [1] of 15 µM, an IC50 at 72 h [2] of 18.4 µM and an IC50 [3] of 15.1 µM.

`O=C(CCCOc1ccc(Cl)c2cccnc12)NO` gave an IC50 [1] of 6.27 µM, an IC50 at 72 h [2] of 19.5 µM and an IC50 [3] of 6.57 µM.

In the case of `O=C(CCCCCCOc1cccc2cccnc12)NO`, the Activity [4] is reported as “Non-toxic”, the IC50 [1] is reported as 0.93 µM and the viability at 1 µM [5] is reported as 77.8%. The Activity [6] was 2.39%, the Activity [7] was 27.75% and the Activity [8] was 50.23%. For the same compound, the inhibition in vivo at 30 mg/kg [9] was 50.2%, the IC50 at 72 h [2] was 3.64 µM and the viability at 5 µM [10] was 49.9%. For the same compound, the inhibition [11] was “Active”, the Activity [12] was 3.68% and the Activity [13] was 23.77%. The Activity [14] was 35.15%, the Activity [15] was “Dose-dependent-effect” and the Activity [16] was 8.03%. The Activity [17] was 24.55%, the Activity [18] was 0.85% and the viability at 0.2 µM [19] was 92.7%. The inhibition [20] was “Dose-dependent-effect”, the Activity [21] was 4.41% and the Activity [22] was 12.52%. It also gave an IC50 [23] of 19.3 µM, an Activity [24] of 11.27% and an Activity [25] of 16%. The IC50 [3] was 1.2 µM, the Activity [26] was 9.75% and the Activity [27] was “inactive”. The Activity [28] was 59.45%, the inhibition [29] was “inactive” and the Activity [30] was 22.01%. It also gave an Activity [31] of 64.96% and an Activity [32] of 2.81%.

For `O=C(CCc1ccc(COc2ccc(Cl)c3cccnc23)cc1)NO`, the IC50 [1] was 17.4 µM, the IC50 at 72 h [2] was greater than 50 µM and the IC50 [3] was 22.7 µM.

`O=C(NO)c1ccccc1COc1cccc2cccnc12` gave an IC50 [1] of 46.6 µM, an IC50 at 72 h [2] greater than 50 µM and an IC50 [3] greater than 50 µM.

`O=C(CCCCCCC(=O)Nc1ccccc1)NO` [VORINOSTAT] gave an IC50 [1] of 2.16 µM, an Activity [6] of 2.39% and an Activity [7] of 24.22%. The Activity [8] was 55.91%, the Activity [10] was 57.12% and the Activity [14] was 32.5%. For the same compound, the Activity [22] was 7.99% and the Activity [30] was 19.87%.

`O=C(Cc1ccc(COc2cccc3cccnc23)cc1)NO` showed an IC50 [1] greater than 50 µM, an IC50 at 72 h [2] greater than 50 µM and an IC50 [3] greater than 50 µM.

Compound `O=C(CCCCOc1ccc(Cl)c2cccnc12)NO` has an IC50 [1] of 21.6 µM, an IC50 at 72 h [2] greater than 50 µM and an IC50 [3] of 22.2 µM.

Compound `O=C(/C=C/c1ccc(COc2ccc(Cl)c3cccnc23)cc1)NO` has an IC50 [1] of 3.7 µM, an IC50 at 72 h [2] of 6.94 µM and an IC50 [3] of 3.45 µM.

With `O=C(NO)c1cccc(COc2ccc(Cl)c3cccnc23)c1` the IC50 [1] was 24.2 µM, the IC50 at 72 h [2] was greater than 50 µM and the IC50 [3] was 29.5 µM.

In the case of `Oc1ccc(Cl)c2cccnc12` [CLOXYQUIN], the IC50 [1] is reported as 5 µM, the Activity [6] is reported as 3.08% and the Activity [7] is reported as 27.67%. It also gave an Activity [8] of 58.85%, an inhibition in vivo at 30 mg/kg [9] of 24.3% and an IC50 at 72 h [2] of 20.4 µM. For the same compound, the viability at 5 µM [10] was 85.1%, the Activity [14] was 6.96% and the Activity [22] was 4.88%. It also gave an IC50 [3] of 6.08 µM and an Activity [30] of 13.48%.

With `O=C(NO)c1ccc(CCOc2cccc3cccnc23)cc1` the IC50 [1] was 13.7 µM, the IC50 at 72 h [2] was 29 µM and the IC50 [3] was 13.3 µM.

With `O=C(CCCCOc1cccc2cccnc12)NO` the IC50 [1] was greater than 50 µM, the IC50 at 72 h [2] was greater than 50 µM and the IC50 [3] was greater than 50 µM.

`O=C(CCCCCCOc1ccc(Cl)c2cccnc12)NO` showed an IC50 [1] of 3.47 µM, an IC50 at 72 h [2] of 8.07 µM and an IC50 [3] of 3.68 µM.

Compound `O=C(NO)c1ccc(CCOc2ccc(Cl)c3cccnc23)cc1` has an IC50 [1] of 10.8 µM, an IC50 at 72 h [2] of 23.3 µM and an IC50 [3] of 11.9 µM.

For `O=C(/C=C/c1ccc(COc2cccc3cccnc23)cc1)NO`, the IC50 [1] was 3.67 µM, the IC50 at 72 h [2] was 7.34 µM and the IC50 [3] was 3.72 µM.

For `O=C(CCCOc1cccc2cccnc12)NO`, the IC50 [1] was 29.8 µM, the IC50 at 72 h [2] was greater than 50 µM and the IC50 [3] was 32.8 µM.

Work on `O=C(NO)c1cccc(COc2cccc3cccnc23)c1` yielded an IC50 [1] of 41.5 µM, an IC50 at 72 h [2] greater than 50 µM and an IC50 [3] greater than 50 µM.

`O=C(CCCCCOc1ccc(Cl)c2cccnc12)NO` gave an IC50 [1] of 13.7 µM, an IC50 at 72 h [2] of 42.1 µM and an IC50 [3] of 15 µM.

For `O=C(NO)c1ccc(COc2ccc(Cl)c3cccnc23)cc1`, the IC50 [1] was greater than 50 µM, the IC50 at 72 h [2] was greater than 50 µM and the IC50 [3] was greater than 50 µM.

`O=C(NO)c1ccccc1COc1ccc(Cl)c2cccnc12` showed an IC50 [1] of 8.53 µM, an IC50 at 72 h [2] of 21.3 µM and an IC50 [3] of 9.78 µM.
